Patent US20240270762A1, “PENICILLIN-BINDING PROTEIN INHIBITORS” (priority 2021, published 2024)
In brackets after ≈: the same amount, converted by molar mass.

Tests used:
[1] = tested on: N. gonorrhoeae FA1090; assay: Liquid broth MIC in Fastidious broth; settings: Neisseria gonorrhoeae, FA1090, read-out: Minimum Inhibitory Concentration, FA 1090
[2] = tested on: A. baumannii CDC-0036; assay: microbe, parasite or virus in culture; format: cell-based; settings: Acinetobacter baumannii, CDC0036, read-out: MIC, A. baumannii CDC-0036
[3] = tested on: P. aeruginosa CDC-0110; assay: microbe, parasite or virus in culture; format: cell-based; settings: Pseudomonas aeruginosa, CDC0110, read-out: Minimum inhibitory concentration, P. aeruginosa CDC-0110
[4] = tested on: P. aeruginosa ATCC 27853; assay: microbe, parasite or virus in culture; format: cell-based; settings: Pseudomonas aeruginosa, ATCC27853, read-out: Minimum inhibitory concentration, P. aeruginosa ATCC 27853
[5] = tested on: B. humptydooensis ATCC BAA-2767; assay: microbe, parasite or virus in culture; format: cell-based; settings: Burkholderia humptydooensis, ATCCBAA2767, read-out: Minimum inhibitory concentration (MIC), B. humptydooensis ATCC BAA-2767
[6] = tested on: N. gonorrhoeae WHO G; assay: Liquid broth MIC in Fastidious broth; settings: Neisseria gonorrhoeae, read-out: Minimum Inhibitory Concentration, WHO G
[7] = tested on: P. aeruginosa CDC-0054; assay: microbe, parasite or virus in culture; format: cell-based; settings: Pseudomonas aeruginosa, CDC0054, read-out: Minimum inhibitory concentration, P. aeruginosa CDC-0054
[8] = tested on: P. aeruginosa CDC-0090; assay: microbe, parasite or virus in culture; format: cell-based; settings: Pseudomonas aeruginosa, CDC0090, read-out: Minimum inhibitory concentration, P. aeruginosa CDC-0090
[9] = molecular target: T1, PBP3 from Pseudomonas aeruginosa (PAO1) (Pseudomonas aeruginosa, UniProt G3XD46); assay: Bocillin-FL fluorescence polarization competition binding, P. aeruginosa PBP3; settings: Binding affinity to P. aeruginosa PBP3; fluorescence polarization competition binding assay using Bocillin-FL; read-out: P. aeruginosa PBP3 Potency
T1 construct: made in house
T1 sequence (G3XD46 whole entry): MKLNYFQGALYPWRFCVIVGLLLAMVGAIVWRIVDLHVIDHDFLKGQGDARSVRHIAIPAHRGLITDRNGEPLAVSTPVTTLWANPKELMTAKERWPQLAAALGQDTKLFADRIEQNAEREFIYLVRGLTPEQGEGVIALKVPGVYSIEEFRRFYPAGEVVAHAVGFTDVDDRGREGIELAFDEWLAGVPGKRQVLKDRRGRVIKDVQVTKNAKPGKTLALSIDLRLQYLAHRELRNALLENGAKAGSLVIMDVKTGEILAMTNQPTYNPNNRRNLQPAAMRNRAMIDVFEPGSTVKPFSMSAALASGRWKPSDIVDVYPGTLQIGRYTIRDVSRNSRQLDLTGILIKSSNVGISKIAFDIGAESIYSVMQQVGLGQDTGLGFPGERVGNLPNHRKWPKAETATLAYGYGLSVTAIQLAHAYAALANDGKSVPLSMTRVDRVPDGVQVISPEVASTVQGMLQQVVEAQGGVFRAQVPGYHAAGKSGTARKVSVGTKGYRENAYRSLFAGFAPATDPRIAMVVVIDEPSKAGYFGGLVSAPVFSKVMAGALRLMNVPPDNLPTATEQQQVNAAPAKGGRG
How it was run: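 Purified PBPs pre-incubated with inhibitor (E. coli PBP3 1.5 μM, 30 min; P. aeruginosa PBP3 0.75 μM, A. baumannii PBP1a 1 μM and PBP3 0.2 μM, 15 min), then Bocillin-FL 0.1 μM (0.05 μM for PBP1a) added; FP read up to 60 min. EC50 = concentration halving bound Bocillin-FL.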

[10] = tested on: A. baumannii CDC-0083; assay: microbe, parasite or virus in culture; format: cell-based; settings: Acinetobacter baumannii, CDC0083, read-out: MIC, A. baumannii CDC-0083
[11] = tested on: N. gonorrhoeae ATCC 49226; assay: Liquid broth MIC in Fastidious broth; settings: Neisseria gonorrhoeae, ATCC49226, read-out: Minimum Inhibitory Concentration, ATCC 49226
[12] = tested on: N. gonorrhoeae WHO X; assay: Liquid broth MIC in Fastidious broth; settings: Neisseria gonorrhoeae, read-out: Minimum Inhibitory Concentration, WHO X
[13] = tested on: N. gonorrhoeae WHO M; assay: Liquid broth MIC in Fastidious broth; settings: Neisseria gonorrhoeae, read-out: Minimum Inhibitory Concentration, WHO M

| Compound | MIC [1] | MIC [2] | MIC [3] | MIC [4] | MIC [5] | MIC [6] | MIC [7] | MIC [8] | IC50 [9] | MIC [10] | MIC [11] | MIC [12] | MIC [13] |
| --- | --- | --- | --- | --- | --- | --- | --- | --- | --- | --- | --- | --- | --- |
| O=C(NCCN1CCN(C(=O)NC(C(=O)N[C@H]2Cc3ccc(F)c(C(=O)O)c3OB2O)c2cc(F)c(O)c(O)c2Cl)C1=O)c1nccs1 (stereo partly drawn) [Example 247, (3R)-3-(2-(2-chloro-5-fluoro-3,4-dihydroxyphenyl)-2-(2-oxo-3-(2-(thiazole-2-carboxamido)ethyl)imidazolidine-1-carboxamido)acetamido)-7-fluoro-2-hydroxy-3,4-dihydro-2H-benzo[e][1,2]oxaborinine-8-carboxylic acid] | 4 to 8 µg/mL (≈ 5.64 to 11.3 µM) | < 1 µg/mL | < 1 µg/mL | 2 to 4 µg/mL (≈ 2.82 to 5.64 µM) | < 1 µg/mL | 16 to 32 µg/mL (≈ 22.6 to 45.1 µM) | 2 to 4 µg/mL (≈ 2.82 to 5.64 µM) | 2 to 4 µg/mL (≈ 2.82 to 5.64 µM) | < 10 µM | < 1 µg/mL | 16 to 32 µg/mL (≈ 22.6 to 45.1 µM) | > 64 µg/mL | 16 to 32 µg/mL (≈ 22.6 to 45.1 µM) |
| O=C(O)c1c(F)ccc2c1OB(O)[C@@H](NC(=O)C(NC(=O)N1CCN(CCNC(=O)[C@@H]3CCCN3)C1=O)c1cc(F)c(O)c(O)c1Cl)C2 (stereo partly drawn) [Example 248, (3R)-3-(2-(2-chloro-5-fluoro-3,4-dihydroxyphenyl)-2-(2-oxo-3-(2-((S)-pyrrolidine-2-carboxamido)ethyl)imidazolidine-1-carboxamido)acetamido)-7-fluoro-2-hydroxy-3,4-dihydro-2H-benzo[e][1,2]oxaborinine-8-carboxylic acid] | 4 to 8 µg/mL (≈ 5.76 to 11.5 µM) | 2 to 4 µg/mL (≈ 2.88 to 5.76 µM) | < 1 µg/mL | 2 to 4 µg/mL (≈ 2.88 to 5.76 µM) | < 1 µg/mL | 16 to 32 µg/mL (≈ 23 to 46.1 µM) | 2 to 4 µg/mL (≈ 2.88 to 5.76 µM) | 8 to 16 µg/mL (≈ 11.5 to 23 µM) | 10 to 50 µM | < 1 µg/mL | 16 to 32 µg/mL (≈ 23 to 46.1 µM) | > 64 µg/mL | 4 to 8 µg/mL (≈ 5.76 to 11.5 µM) |
| O=C(NCCN1CCN(C(=O)NC(C(=O)N[C@H]2Cc3ccc(F)c(C(=O)O)c3OB2O)c2cc(F)c(O)c(O)c2Cl)C1=O)Nc1cccc(O)c1 (stereo partly drawn) [Example 249, (3R)-3-(2-(2-chloro-5-fluoro-3,4-dihydroxyphenyl)-2-(3-(2-(3-(3-hydroxyphenyl)ureido)ethyl)-2-oxoimidazolidine-1-carboxamido)acetamido)-7-fluoro-2-hydroxy-3,4-dihydro-2H-benzo[e][1,2]oxaborinine-8-carboxylic acid] | 1 to 2 µg/mL (≈ 1.36 to 2.73 µM) | 2 to 4 µg/mL (≈ 2.73 to 5.46 µM) | < 1 µg/mL | 2 to 4 µg/mL (≈ 2.73 to 5.46 µM) | < 1 µg/mL | 16 to 32 µg/mL (≈ 21.8 to 43.7 µM) | 2 to 4 µg/mL (≈ 2.73 to 5.46 µM) | < 1 µg/mL | < 10 µM | < 1 µg/mL | 16 to 32 µg/mL (≈ 21.8 to 43.7 µM) | > 64 µg/mL | 16 to 32 µg/mL (≈ 21.8 to 43.7 µM) |
| O=C(NCCN1CCN(C(=O)NC(C(=O)N[C@H]2Cc3ccc(F)c(C(=O)O)c3OB2O)c2cc(F)c(O)c(O)c2Cl)C1=O)Nc1ccncc1 (stereo partly drawn) [Example 250, (3R)-3-(2-(2-chloro-5-fluoro-3,4-dihydroxyphenyl)-2-(2-oxo-3-(2-(3-(pyridin-4-yl)ureido)ethyl)imidazolidine-1-carboxamido)acetamido)-7-fluoro-2-hydroxy-3,4-dihydro-2H-benzo[e][1,2]oxaborinine-8-carboxylic acid] | 4 to 8 µg/mL (≈ 5.57 to 11.1 µM) | 2 to 4 µg/mL (≈ 2.79 to 5.57 µM) | 2 to 4 µg/mL (≈ 2.79 to 5.57 µM) | 2 to 4 µg/mL (≈ 2.79 to 5.57 µM) | < 1 µg/mL | > 64 µg/mL | 8 to 16 µg/mL (≈ 11.1 to 22.3 µM) | 2 to 4 µg/mL (≈ 2.79 to 5.57 µM) | < 10 µM | < 1 µg/mL | > 64 µg/mL | > 64 µg/mL | 16 to 32 µg/mL (≈ 22.3 to 44.6 µM) |
| O=C(NCCN1CCN(C(=O)NC(C(=O)N[C@H]2Cc3ccc(F)c(C(=O)O)c3OB2O)c2cc(F)c(O)c(O)c2Cl)C1=O)Nc1cccnc1 (stereo partly drawn) [Example 251, (3R)-3-(2-(2-chloro-5-fluoro-3,4-dihydroxyphenyl)-2-(2-oxo-3-(2-(3-(pyridin-3-yl)ureido)ethyl)imidazolidine-1-carboxamido)acetamido)-7-fluoro-2-hydroxy-3,4-dihydro-2H-benzo[e][1,2]oxaborinine-8-carboxylic acid] | 4 to 8 µg/mL (≈ 5.57 to 11.1 µM) | 2 to 4 µg/mL (≈ 2.79 to 5.57 µM) | < 1 µg/mL | < 1 µg/mL | < 1 µg/mL | 16 to 32 µg/mL (≈ 22.3 to 44.6 µM) | 8 to 16 µg/mL (≈ 11.1 to 22.3 µM) | 2 to 4 µg/mL (≈ 2.79 to 5.57 µM) | < 10 µM | 2 to 4 µg/mL (≈ 2.79 to 5.57 µM) | 16 to 32 µg/mL (≈ 22.3 to 44.6 µM) | > 64 µg/mL | 16 to 32 µg/mL (≈ 22.3 to 44.6 µM) |
